According to ChEMBL document CHEMBL1201862, “PubChem BioAssay data set” (2004):
Calls of active or inactive are those of the source.

Columns and labels:
[1] = Luminescence Cell-Based Dose Confirmation HTS to Identify Activators of 5'UTR Stem-Loop Driven Alpha-Synuclein mRNA Translation in H4 Neuroglioblastoma Cells. [Related pubchem assays: 1829 (Project Summary), 1814 (Primary HTS)]; type: functional
[2] = Luminescence Cell-Based Dose Response HTS to Identify Activators of Luciferase Translation or Activity in H4 […] Cells. [Related pubchem assays: 1829 (Project Summary), 1814 (Primary HTS)]; type: functional
[3] = test system: H4; experiment: Luminescence Cell-Based Dose Response HTS to Identify Activators of 5'UTR Stem-Loop Driven Prion Protein mRNA Translation in H4 Neuroglioblastoma Cells. [Related pubchem assays: 1829 (Project Summary), 1814 (Primary HTS)]; type: functional; settings: Homo sapiens
[4] = target: T1, Low molecular weight phosphotyrosine protein phosphatase (Homo sapiens, UniProt P24666); type: functional; settings: read-out: IC50_Mean;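 note: Dose-response confirmation assay measuring inhibition of LMPTP enzyme activity by fluorescence intensity read-out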
T1 sequence (P24666 whole entry): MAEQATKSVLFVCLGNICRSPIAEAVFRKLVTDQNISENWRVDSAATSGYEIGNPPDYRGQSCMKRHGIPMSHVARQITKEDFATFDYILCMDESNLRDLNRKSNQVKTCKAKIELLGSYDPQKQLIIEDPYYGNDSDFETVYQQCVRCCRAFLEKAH

[5] = intracellular Trypanosoma cruzi inhibitors in host cells – cell-based, plate reader, cherry-pick samples, set 3, dose response (AID 651818); type: functional;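 note: compounds incubated with infected cells for about four days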
[6] = target: T2, Leucine aminopeptidase (Plasmodium falciparum 3D7, UniProt Q8IL11); experiment: P. falciparum M17LAP inhibitors, primary screen, biochemical, fluorogenic H-Leu-NHMec substrate, 1536-well (AID 1619); type: functional
T2 sequence (Q8IL11 whole entry): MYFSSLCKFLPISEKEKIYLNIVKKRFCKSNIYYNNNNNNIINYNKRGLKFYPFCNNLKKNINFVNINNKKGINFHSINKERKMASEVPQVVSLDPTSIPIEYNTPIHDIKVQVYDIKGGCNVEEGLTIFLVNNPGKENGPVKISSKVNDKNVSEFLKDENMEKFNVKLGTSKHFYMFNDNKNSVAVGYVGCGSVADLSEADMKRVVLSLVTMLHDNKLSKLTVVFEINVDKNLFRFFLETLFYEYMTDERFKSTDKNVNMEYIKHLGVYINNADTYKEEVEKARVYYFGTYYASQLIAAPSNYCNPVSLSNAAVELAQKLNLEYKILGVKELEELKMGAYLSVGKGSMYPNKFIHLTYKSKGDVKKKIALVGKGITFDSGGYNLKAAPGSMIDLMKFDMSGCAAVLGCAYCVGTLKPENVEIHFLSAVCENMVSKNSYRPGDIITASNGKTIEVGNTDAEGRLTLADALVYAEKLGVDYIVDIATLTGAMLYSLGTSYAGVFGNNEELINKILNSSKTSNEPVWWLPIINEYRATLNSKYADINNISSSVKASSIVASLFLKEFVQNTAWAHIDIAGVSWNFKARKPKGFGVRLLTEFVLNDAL

[7] = cells; type: functional, cell-based
[8] = cells; type: functional, cell-based; remark: listed apart in the source
[9] = test system: P388/ADR; experiment: cells; type: functional; settings: Mus musculus
[10] = test system: SN12K1; experiment: cells; type: functional; settings: Homo sapiens
[11] = test system: P388; experiment: cells; type: functional; settings: Mus musculus
[12] = luciferase reporter signal suppression in cells – H4 neuroglioma cells, luminescence, dose response (AID 1990); type: functional, cell-based
[13] = cells; type: functional, cell-based; remark: listed apart in the source
[14] = Luminescence Cell-Based Dose Response HTS to Identify Inhibitors of 5'UTR Stem-Loop Driven Prion Protein mRNA Translation in H4 Neuroglioblastoma Cells. [Related pubchem assays: 1827 (Project Summary), 1813 (Primary HTS)]; type: functional
[15] = alpha-synuclein stem-loop luciferase translation blockers – H4 neuroglioma cells, luminescence, confirmation (AID 1988); type: functional, cell-based
[16] = cells; type: functional, cell-based; remark: listed apart in the source
[17] = Luminescence Cell-Based Dose Retest to Confirm Inhibitors of Cancer Stem Cells. [Related pubchem assays (depositor defined):AID2717, AID2721]; type: functional; settings: Homo sapiens
[18] = test system: INS1; experiment: INS-1E survival protection against cytokine death – cell-based, luminescence, retest, dose response (AID 449756); type: functional; settings: Rattus norvegicus;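 note: cell death triggered by IL-1 beta plus TNF-alpha plus IFN-gamma mixture; protective hits raise ATP signal compared with cytokine alone wells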
[19] = reduction of Shn3 3'UTR-driven luciferase in osteoblasts – cell-based, Clone20 osteoblasts, firefly luciferase, cherry-picked, dose response (AID 624132); type: functional;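 note: firefly luciferase luminescence from reporter carrying the Shn3 3'UTR in osteoblasts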
[20] = loss of viability in HepG2 cells – cell-based, CellTiter-Glo, cherry-picked, cytotoxicity control for Shn3 inhibitor project, dose response (AID 624134); type: functional
[21] = non-specific 3'UTR reporter inhibition in Clone20-Shn3RL – cell-based, Renilla luciferase, cherry-picked, counter-screen for Shn3 inhibitor project, dose response (AID 624133); type: functional
[22] = target: Heat shock protein HSP 90-alpha (Homo sapiens, UniProt P07900); type: functional, organism-based
[23] = target: T3, Polyadenylate-binding protein 1 (Homo sapiens, UniProt P11940); experiment: MLLE binding blockers, Cy5 peptide tracer – biochemical, fluorescence polarization, Cy5-PAM2 peptide, secondary, miRNA deadenylation inhibitor project, dose response (AID 602260); type: functional; settings: read-out: IC50_Mean
[24] = target: T3, Polyadenylate-binding protein 1; experiment: MLLE domain peptide-binding blockers, IC50 – biochemical, fluorescence polarization, FITC-PAM2 peptide, dose response (AID 602259); type: functional; settings: read-out: IC50_Mean
[25] = test system: Streptococcus sp. 'group A'; experiment: Streptococcus pyogenes SK(-)GAS viability under kanamycin – luminescence, BacTiterGlo, confirmation, counter-screen for streptokinase expression inhibitor project, dose response (AID 1900); type: functional, organism-based
[26] = target: T4, Streptokinase A (Streptococcus pyogenes serotype M1, UniProt P10520); experiment: viability-normalized secreted streptokinase activity reduction – plasminogen activation absorbance, OD405, dose response (AID 1914); type: functional, Streptococcus pyogenes M1 GAS;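 note: secreted streptokinase activity via plasminogen activation per viability signal from cell pellet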
T4 sequence (P10520 whole entry): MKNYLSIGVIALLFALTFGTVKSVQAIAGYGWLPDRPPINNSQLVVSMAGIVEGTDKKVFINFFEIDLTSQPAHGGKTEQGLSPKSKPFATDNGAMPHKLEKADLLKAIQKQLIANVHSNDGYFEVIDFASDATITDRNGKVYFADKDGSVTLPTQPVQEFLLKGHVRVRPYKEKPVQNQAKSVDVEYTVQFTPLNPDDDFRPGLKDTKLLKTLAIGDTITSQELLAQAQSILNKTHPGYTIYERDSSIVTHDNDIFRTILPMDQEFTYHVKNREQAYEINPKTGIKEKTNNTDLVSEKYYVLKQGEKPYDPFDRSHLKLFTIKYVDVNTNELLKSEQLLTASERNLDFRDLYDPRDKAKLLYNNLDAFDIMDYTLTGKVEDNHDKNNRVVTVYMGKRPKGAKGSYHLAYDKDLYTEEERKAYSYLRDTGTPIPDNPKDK

[27] = Trypanosoma cruzi growth suppression in host cells – NIH3T3 host cells, beta-gal luminescence, confirmation (AID 2044); type: functional, cell-based;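 note: intracellular parasites grown in NIH/3T3 mouse fibroblasts as host cells; luminescent beta-galactosidase reporter signal from transgenic T. cruzi replicating inside host cells; inhibitors lower the luminescence signal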
[28] = NIH3T3 cell viability loss – ATP luminescence, mouse fibroblasts, counter-screen, dose response (AID 2010); type: functional, cell-based;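 note: cells exposed to compound for about 90 hours before reading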
[29] = test system: Streptococcus; experiment: GAS UMAA2166 growth inhibition – luminescence, BacTiterGlo, counter-screen for streptokinase expression inhibitor project, dose response (AID 1915); type: functional, organism-based;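 note: potency for reduction of bacterial viability or growth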
[30] = target: Paired box protein Pax-8 (Homo sapiens, UniProt Q06710); experiment: PAX8 transcriptional activity inhibition in RMG-I – RMG-I cells, luciferase, cherry-pick, dose response (AID 687027); type: functional, cell-based;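 note: luciferase reporter driven by Pax8 target thyroperoxidase promoter measured by SteadyGlo luminescence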
[31] = OVCAR-3 cell viability loss – plate reader, dry powder samples, PAX8 inhibitor project, dose response (AID 743044); type: functional, cell-based
[32] = OVCAR8 cell viability loss – plate reader, dry powder samples, PAX8 project, dose response (AID 743197); type: functional, cell-based; settings: OVCAR-8
[33] = IGROV1 cell killing – plate reader, dry powder samples, PAX8 inhibitor project, dose response (AID 743043); type: functional, cell-based; settings: IGROV-1

Chain of Paired box protein Pax-8 (Q06710 whole entry): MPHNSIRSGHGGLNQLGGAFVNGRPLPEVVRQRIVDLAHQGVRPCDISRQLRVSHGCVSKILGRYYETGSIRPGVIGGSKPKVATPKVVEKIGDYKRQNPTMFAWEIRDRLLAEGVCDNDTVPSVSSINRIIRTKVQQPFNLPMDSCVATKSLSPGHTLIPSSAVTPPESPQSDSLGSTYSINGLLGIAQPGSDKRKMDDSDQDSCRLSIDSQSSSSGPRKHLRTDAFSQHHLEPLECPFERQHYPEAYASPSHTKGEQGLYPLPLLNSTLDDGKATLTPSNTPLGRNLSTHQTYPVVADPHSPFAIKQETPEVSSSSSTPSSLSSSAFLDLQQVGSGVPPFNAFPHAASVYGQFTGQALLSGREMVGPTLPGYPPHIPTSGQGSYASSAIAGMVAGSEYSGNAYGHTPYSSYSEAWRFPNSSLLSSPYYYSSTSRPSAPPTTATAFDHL
T3 sequence (P11940 whole entry, the tested form may be a part): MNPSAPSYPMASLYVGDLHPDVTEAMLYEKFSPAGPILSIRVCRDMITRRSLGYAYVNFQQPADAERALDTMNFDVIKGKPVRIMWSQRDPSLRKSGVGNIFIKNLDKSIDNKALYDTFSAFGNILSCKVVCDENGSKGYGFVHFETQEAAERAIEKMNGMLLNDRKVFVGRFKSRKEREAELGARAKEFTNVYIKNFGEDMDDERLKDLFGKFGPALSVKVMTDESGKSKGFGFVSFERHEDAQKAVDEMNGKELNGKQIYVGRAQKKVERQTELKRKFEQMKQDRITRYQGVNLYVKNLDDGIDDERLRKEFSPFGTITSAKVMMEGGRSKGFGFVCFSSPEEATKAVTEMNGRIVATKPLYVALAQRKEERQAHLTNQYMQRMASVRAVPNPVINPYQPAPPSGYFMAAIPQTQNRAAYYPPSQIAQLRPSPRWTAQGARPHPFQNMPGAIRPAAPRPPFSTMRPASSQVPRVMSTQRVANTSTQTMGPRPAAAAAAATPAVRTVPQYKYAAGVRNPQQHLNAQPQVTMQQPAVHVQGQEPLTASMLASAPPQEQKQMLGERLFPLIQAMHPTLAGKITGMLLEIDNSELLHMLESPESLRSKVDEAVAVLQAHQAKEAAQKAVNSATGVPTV

## CCn1cc(C(=O)O)c(=O)c2cnc(N3CCN(C(=S)Nc4ccccc4Cl)CC3)nc21
[1]
  EC50: > 120 µM (not active)
[2]
  EC50: > 120 µM (not active)
[3]
  EC50: > 120 µM (not active)
[4]
  IC50: 35.9 µM (inactive)

## COc1ccc(S(=O)(=O)Nc2ccc3c(c2)CC(=O)N([C@@H](C)CO)C[C@@H](C)[C@@H](CN(C)Cc2ccc(C(F)(F)F)cc2)O3)cc1
[5]
  AC50: 5.93 µM (active)

## Cc1ccc(-n2c(C)cc(C(=O)NS(=O)(=O)c3ccc(C)cc3)c2C)cc1
[6]
  IC50: 25.4 µM (active)

## C[C@H](CO)N1C[C@H](C)[C@H](CN(C)C(=O)Nc2ccc(C(F)(F)F)cc2)Oc2c(NC(=O)Nc3ccc(C(F)(F)F)cc3)cccc2C1=O
[5]
  AC50: 6.56 µM (active)

## C(=NOCCc1ccccc1)c1cccnc1
[7]
  IC50: > 29.8 µM (inactive)
[8]
  EC50: > 29.8 µM (inactive)

## CCCCCCCCCCCC1CCCC(C)N1 (configuration not stated)
[9]
  GI50: 12.4 µM (inactive)
[10]
  GI50: 28.3 µM (inactive)
[11]
  GI50: 10.5 µM (inactive)

## CCOC(=O)c1cnc(-n2nc(C)cc2C)nc1NNc1nc(-c2ccccc2)cc(-c2ccccc2)n1
[12]
  EC50: 8.48 µM (active)
[13]
  EC50: > 350 µM (not active)
[14]
  EC50: 12.6 µM (active)
[15]
  EC50: 8.83 µM (active)
[16]
  EC50: > 350 µM (not active)
[17]
  AC50: 1.88 µM (active)
[18]
  AC50: 2.69 µM (active)
[19]
  AC50: 3.84 µM (active)
[20]
  AC50: 48.5 µM (active)
[21]
  AC50: 7.39 µM (active)

## O=c1n(CC2CO2)c(=O)n(CC2CO2)c(=O)n1CC1CO1 (configuration not stated) [TEROXIRONE]
[9]
  GI50: 1.91 µM (inactive)
[10]
  GI50: 35.6 µM (inactive)
[11]
  GI50: 1.61 µM (inactive)

## Cc1cc(-c2ccc(/N=N/c3ccc4c(S(=O)(=O)O)cc(S(=O)(=O)O)c(N)c4c3O)c(C)c2)ccc1/N=N/c1ccc2c(S(=O)(=O)O)cc(S(=O)(=O)O)c(N)c2c1O
[9]
  GI50: > 100 µM (inactive)
[10]
  GI50: > 100 µM (inactive)
[11]
  GI50: > 100 µM (inactive)

## Cc1cc2cc(CNC(=O)c3ccc(C)c([N+](=O)[O-])c3)ccc2[nH]1
[22]
  AC50: 11 µM (active)
[23]
  IC50: > 66 µM (inactive)
[24]
  IC50: > 66 µM (inactive)

## COc1ccc(CNC(=O)C2CC(C)=C(C)CC2C(=O)O)cc1 (configuration not stated)
[6]
  IC50: 43.7 µM (active)

## C[C@H](CO)N1C[C@H](C)[C@H](CN(C)Cc2ccc(C(=O)Nc3ccccc3N)cc2)Oc2c(cccc2N(C)C)C1=O
[5]
  AC50: 3.67 µM (active)

## CC(C)c1ccc(-c2cc(C(=O)N3N=C(C(F)F)CC3(O)C(F)F)c3ccccc3n2)cc1 (configuration not stated)
[25]
  EC50: 3.3 µM (active)
[3]
  EC50: 10 µM (active)
[26]
  EC50: > 150 µM (not active)
[27]
  EC50: 3.4 µM (active)
[28]
  EC50: > 60 µM (not active)
[29]
  EC50: 4.31 µM (active)
[17]
  AC50: 4.37 µM (active)
[22]
  AC50: 4.06 µM (active)

## C[C@@H]1CN([C@H](C)CO)C(=O)c2cc(NS(=O)(=O)c3ccccc3)ccc2O[C@@H](C)CCCCO[C@@H]1CN(C)CC1CCCCC1
[30]
  AC50: 19.6 µM (active)
[31]
  AC50: 53.9 µM (active)
[32]
  AC50: 68 µM (active)

## C[C@@H]1CN([C@H](C)CO)C(=O)Cc2cc(NC(=O)NC3CCCCC3)ccc2O[C@H]1CN(C)Cc1ccc(-c2ccccc2)cc1
[5]
  AC50: 4.51 µM (active)

## C[C@@H]1CCCCO[C@@H](CN(C)S(=O)(=O)c2ccc(Cl)cc2)[C@H](C)CN([C@H](C)CO)C(=O)c2cc(NS(=O)(=O)c3ccc(F)cc3)ccc2O1
[30]
  AC50: 3.41 µM (active)
[33]
  AC50: 57.7 µM (active)

## C[C@@]12CC[C@H]3[C@@H]4CCC(=O)N[C@@]4(C)CC[C@@H]3[C@@]1(C)CC[C@H](OC(=O)Cc1ccc(N(CCCl)CCCl)cc1)C2
[9]
  GI50: 14.7 µM (inactive)
[10]
  GI50: 16.9 µM (inactive)
[11]
  GI50: 10.6 µM (inactive)

## C=C1CCCC(C)(C)[C@@H]1CC/C(C)=C/Cn1c2cccc(=O)c-2nc2ccccc21
[9]
  GI50: 0.229 µM (active)
[10]
  GI50: 1.48 µM (inactive)
[11]
  GI50: 0.569 µM (active)

## O=C1CC(=O)C(n2cncn2)C(c2ccc(Cl)cc2Cl)C1 (configuration not stated)
[6]
  IC50: 17.9 µM (active)

## Cc1cc(Cl)nc(Cl)c1C(=O)NCCc1ccccc1
[7]
  IC50: > 29.9 µM (inactive)
[8]
  EC50: > 29.9 µM (inactive)

## O=C(O)C1CC=CCC1C(=O)NCCc1ccccc1 (configuration not stated)
[7]
  IC50: > 29.9 µM (inactive)
[8]
  EC50: > 29.9 µM (inactive)

## C=Cc1cc(OC)c2c(c1)c(=O)oc1c2cc(OC)c2c(O)ccc(C3OC(C)C(O)C(C)(O)C3O)c21 (configuration not stated)
[9]
  GI50: 0.0225 µM (active)
[10]
  GI50: 0.0269 µM (active)
[11]
  GI50: 0.0225 µM (active)
[30]
  AC50: < 0.26 µM (active)
